Measured values published in EP2488183B1, “Composition for inhibiting TGF-beta comprising imidazopurine derivatives” (Korea Institute of Radiological & Medical Sciences, priority 2009, dated 2011).

Tested on: IMR-90 cells
Assay: Western blotting of fibrosis markers in irradiated lung fibrocytes
Format: cell-based, human
Settings: IMR-90, 10 µM, 2 h before 4 Gy radiation, 48 h; FIG. 7c
Procedure: In order to identify whether compound I inhibits radiation-induced fibrosis, instead of external stimulation by TGF-β radiation that can internally engogenously increase TGF-β was employed to induce fibrosis. IMR-90 cells were incubated as described in (1) above and the IMR-90 cells were inoculated to a 6 cm plate containing a modified Eagle's medium (MEM) supplemented with 10% FBS serum, 100 units/ml of penicillin, and 100 µg/ml of streptomycin, 1 mM sodium pyruvate, and 0.1 mM non-essential amino acids. Then, compound I at a concentration of 10 µM was added thereto and the IMR-90 cells were incubated for 2 hours, and then, 4 Gy radiation was applied thereto. 48 hours later, the IMR-90 cells were collected. Then, fibrosis makers as described in Example 2 were identified from the IMR-90 cells by western blotting.

Cc1cn2c(nc3c2c(=O)n(Cc2ccccc2Cl)c(=O)n3C)[nH]1 [compound I, 3-(2-chlorobenzyl)-1,7-dimethyl-1H-imidazo[2,1-f]purine-2,4(3H,8H)-dion]
expressions of α-SMA and fibronectin: significantly reduced
